In ChEMBL document CHEMBL1153815, “Mapping the ribonucleolytic active site of bovine seminal ribonuclease. The binding of pyrimidinyl phosphonucleotide inhibitors” (Eur J Med Chem, 2009):
Active and inactive are the calls of the source. The rule behind the calls is not given here.

What was measured:
Ribonuclease pancreatic = target: T1, Ribonuclease pancreatic (Bos taurus, UniProt P61823); test: Inhibition of bovine pancreatic ribonuclease A assessed as enzyme activity by spectrophotometric method pH 6
T1 sequence (P61823 whole entry): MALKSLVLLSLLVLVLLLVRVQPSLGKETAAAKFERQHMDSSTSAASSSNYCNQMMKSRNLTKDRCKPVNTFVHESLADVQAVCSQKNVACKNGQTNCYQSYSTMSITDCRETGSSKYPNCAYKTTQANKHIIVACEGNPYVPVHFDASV

Mus musculus [1] = test: Inhibition of aspermatogenic activity of bovine […] assessed as weight of the testes at 1:1 ratio of BS-Rnase+compound after 10 days administered once into left testes; type: functional, organism-based; conditions: Testis
Seminal ribonuclease = target: T2, Seminal ribonuclease (Bos taurus, UniProt P00669); test: Inhibition of bovine seminal ribonuclease assessed as enzyme activity by spectrophotometric method at pH 6
T2 sequence (P00669 whole entry): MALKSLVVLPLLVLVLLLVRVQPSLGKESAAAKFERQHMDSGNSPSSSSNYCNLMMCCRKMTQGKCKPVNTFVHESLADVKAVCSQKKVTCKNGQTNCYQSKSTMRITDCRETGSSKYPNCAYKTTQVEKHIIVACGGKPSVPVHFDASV

Mus musculus [2] = test: Inhibition of aspermatogenic activity of bovine […] assessed as width of spermatogenic layer at 1:100 ratio of BS-Rnase+compound after 10 days administered once into left testes; type: functional, organism-based
Mus musculus [3] = test: Inhibition of aspermatogenic activity of bovine seminal ribonuclease in mouse ICR assessed as width of spermatogenic layer at 1:100 ratio of BS-Rnase+compound after 10 days administered once into left testes; type: functional, organism-based
Mus musculus [4] = test: Inhibition of aspermatogenic activity of bovine […] assessed as diameter of somniferous tubule at 1:100 ratio of BS-Rnase+compound after 10 days administered once into left testes; type: functional, organism-based
Mus musculus [5] = test: Inhibition of aspermatogenic activity of bovine seminal ribonuclease in mouse ICR assessed as diameter of somniferous tubule at 1:100 ratio of BS-Rnase+compound after 10 days administered once into left testes; type: functional, organism-based
Mus musculus [6] = test: Inhibition of aspermatogenic activity of bovine seminal ribonuclease in mouse ICR assessed as weight of the testes at 1:100 ratio of BS-Rnase+compound after 10 days administered once into left testes; type: functional, organism-based; conditions: Testis
Mus musculus [7] = test: Inhibition of aspermatogenic activity of bovine seminal ribonuclease in mouse ICR assessed as diameter of somniferous tubule at 1:1 ratio of BS-Rnase+compound after 10 days administered once into left testes; type: functional, organism-based
Mus musculus [8] = test: Inhibition of aspermatogenic activity of bovine seminal ribonuclease in mouse ICR assessed as weight of the testes at 1:1 ratio of BS-Rnase+compound after 10 days administered once into left testes; type: functional, organism-based; conditions: Testis
Mus musculus [9] = test: Inhibition of aspermatogenic activity of bovine seminal ribonuclease in mouse ICR assessed as width of spermatogenic layer at 1:1 ratio of BS-Rnase+compound after 10 days administered once into left testes; type: functional, organism-based

| Ki (Ribonuclease pancreatic) [µM] | Activity (Mus musculus [3]) | Activity (Mus musculus [5]) | Activity (Mus musculus [6]) | SMILES | also measured |
| --- | --- | --- | --- | --- | --- |
| 11.6 |  |  |  | O=c1ccn([C@@H]2O[C@H](CO)[C@@H](O)[C@H]2OP(=O)(O)O)c(=O)[nH]1 |  |
| 78.5 |  |  |  | O=c1ccn([C@@H]2O[C@H](CO)[C@@H](OP(=O)(O)O)[C@H]2O)c(=O)[nH]1 |  |
| 844 | inactive | inactive | inactive | Nc1ccn([C@@H]2O[C@H](COP(=O)(O)O)[C@@H](O)[C@H]2O)c(=O)n1 | Activity (Mus musculus [1]): Active; Ki (Seminal ribonuclease): 1.56 mM; Activity (Mus musculus [2]): Active; Activity (Mus musculus [4]): Active |
| 647 |  |  |  | O=c1ccn([C@@H]2O[C@H](COP(=O)(O)OP(=O)(O)O)[C@@H](O)[C@H]2O)c(=O)[nH]1 [URIDINE_DIPHOSPHATE] |  |
| 20.1 | inactive | inactive | inactive | Nc1ccn([C@@H]2O[C@H](CO)[C@@H](OP(=O)(O)O)[C@H]2O)c(=O)n1 | Activity (Mus musculus [7]): Active; Activity (Mus musculus [8]): Active; Activity (Mus musculus [9]): Active |
